# Reference: DBAASP
# Where “and” joins values, the source holds several entries; their conditions need not be identical. Identical values can stand only once.
# Tests used:
# Assay in all cases: ≥ marks a high value that may be exact or a test limit, other limits are often not marked, values filed in µg/mL are converted to µM
# Micrococcus luteus = tested on: Micrococcus luteus
# [1] = tested on: Staphylococcus epidermidis LT1324
# Acinetobacter baumannii = tested on: Acinetobacter baumannii
# [2] = tested on: Pseudomonas aeruginosa ATCC 27853
# [3] = tested on: Escherichia coli ATCC 25922
# [4] = tested on: Staphylococcus aureus II ATCC 6538P
# [5] = tested on: Acinetobacter baumannii ATCC 19606
# Escherichia coli D21 = tested on: Escherichia coli D21
# Staphylococcus simulans = tested on: Staphylococcus simulans
# [6] = tested on: Staphylococcus aureus ATCC 25923
# Serratia rubidaea X01 = tested on: Serratia rubidaea X01
# [7] = tested on: Rhodococcus rhodochrous X15
# [8] = tested on: Klebsiella pneumoniae 08040724
# [9] = tested on: Psychrobacter faecalis X29
# [10] = tested on: Bacillus licheniformis X39
# [11] = tested on: Candida albicans ATCC 10231
# [12] = tested on: Enterococcus faecalis 981
# [13] = tested on: Pseudomonas aeruginosa CGMCC 1.50
# [14] = tested on: Staphylococcus carnosus KHS
# [15] = tested on: Pseudomonas aeruginosa 11053
# [16] = tested on: Pseudomonas aeruginosa H1001
# [17] = tested on: Bacillus subtilis KCCM 11495
# [18] = tested on: Escherichia coli KCCM 11569
# [19] = tested on: Acholeplasma laidlawii A-EF22
# Spiroplasma citri R8A2 = tested on: Spiroplasma citri R8A2
# [20] = tested on: Spiroplasma floricola BNR 1
# [21] = tested on: Mycoplasma mycoides ssp. mycoides SC KH3J
# [22] = tested on: Spiroplasma melliferum BC3
# [23] = tested on: Escherichia coli KCTC 2433
# [24] = tested on: Staphylococcus epidermidis ATCC 12228
# Candida albicans = tested on: Candida albicans
# [25] = tested on: Staphylococcus aureus KCTC 3881
# Escherichia coli AS1.349 = tested on: Escherichia coli AS1.349
# [26] = tested on: Klebsiella pneumoniae ATCC 10031
# [27] = tested on: Bacillus subtilis ATCC 6633
# Lactococcus lactis = tested on: Lactococcus lactis
# [28] = tested on: Staphylococcus aureus AS1.72
# [29] = tested on: Shigella dysenteriae ATCC 9752
# [30] = tested on: Proteus mirabilis ATCC 25933
# [31] = tested on: Candida albicans ATCC 36232
# [32] = tested on: Pseudomonas aeruginosa ATCC 9027
# Pseudomonas aeruginosa = tested on: Pseudomonas aeruginosa
# Bacillus cereus = tested on: Bacillus cereus
# [33] = tested on: Micrococcus luteus ATCC 4698
smiles,measurement,setting,value
CC(C)C[C@H](NC(=O)[C@H](CC(C)C)NC(=O)[C@H](CCCCN)NC(=O)[C@H](CC(C)C)NC(=O)[C@H](CC(C)C)NC(=O)[C@H](CCCCN)NC(=O)[C@H](CCCCN)NC(=O)[C@H](CC(C)C)NC(=O)[C@H](CC(C)C)NC(=O)[C@H](CCCCN)NC(=O)[C@H](CCCCN)NC(=O)[C@H](CC(C)C)NC(=O)[C@H](CC(C)C)NC(=O)[C@H](CCCCN)NC(=O)[C@@H](N)CC(C)C)C(N)=O [LKLLKKLLKKLLKLL],MIC,Micrococcus luteus,2 µM
same,MIC,[1],4 µM
same,MIC,Acinetobacter baumannii,6.2 µM
same,MIC,[2],24.9 µM and 25 µM
same,MIC,[3],13 µM
same,MIC,[4],3 µM
same,MIC,[5],1 µM
same,MIC,Escherichia coli D21,13 µM
same,MIC,Staphylococcus simulans,2 µM
CC[C@H](C)[C@H](NC(=O)[C@H](CCCCN)NC(=O)[C@@H]1CCCN1C(=O)[C@H](CC(C)C)NC(=O)[C@H](Cc1ccccc1)NC(=O)[C@H](CC(N)=O)NC(=O)[C@H](C)NC(=O)[C@H](C)NC(=O)[C@H](CC(C)C)NC(=O)CNC(=O)[C@H](C)NC(=O)[C@H](CC(C)C)NC(=O)[C@H](CCSC)NC(=O)[C@@H]1CCCN1C(=O)[C@H](CC(C)C)NC(=O)[C@@H](N)Cc1ccccc1)C(=O)N[C@H](C(=O)N[C@H]1CSSC[C@@H](C(=O)O)NC(=O)[C@H](CCCCN)NC(=O)[C@H](CCCCN)NC(=O)[C@H]([C@@H](C)O)NC(=O)[C@H]([C@@H](C)CC)NC(=O)[C@H](CCCCN)NC1=O)C(C)C [FLPMLAGLAANFLPKIVCKITKKC],MIC,[6],9 µM
same,MIC,Serratia rubidaea X01,4.6 µM
same,MIC,[7],0.6 µM
same,MIC,[8],≥ 150 µM
same,MIC,[9],9 µM
same,MIC,[10],2.3 µM
same,MIC,[11],37.5 µM
same,MIC,[12],9 µM
same,MIC,[13],≥ 75 µM
same,MIC,[14],1.2 µM
same,MIC,[3],75 µM
same,MIC,[15],≥ 75 µM
CC[C@H](C)[C@H](NC(=O)[C@H](CCCCN)NC(=O)[C@H](Cc1c[nH]c2ccccc12)NC(=O)[C@H](CCCN=C(N)N)NC(=O)[C@@H](N)CCCN=C(N)N)C(=O)N[C@H](C(=O)N[C@H](C(=O)N[C@H](C(=O)N[C@@H](CCCN=C(N)N)C(=O)N[C@@H](Cc1c[nH]c2ccccc12)C(=O)N[C@@H](CCCCN)C(=O)N[C@@H](CCCCN)C(N)=O)[C@@H](C)CC)C(C)C)C(C)C [RRWKIVVIRWKK],MIC,[16],1.2 µM
CC(C)C[C@H](NC(=O)CNC(=O)[C@H](Cc1cnc[nH]1)NC(=O)[C@H](Cc1cnc[nH]1)NC(=O)[C@H](CC(C)C)NC(=O)[C@H](CC(C)C)NC(=O)[C@H](C)NC(=O)[C@H](CC(N)=O)NC(=O)[C@H](CC(C)C)NC(=O)[C@@H](N)Cc1c[nH]c2ccccc12)C(=O)N[C@@H](CC(N)=O)C(=O)N[C@@H](CS)C(N)=O [WLNALLHHGLNC],MIC,[17],≥ 46 µM
same,MIC,[18],≥ 46 µM
CC(C)C[C@H](NC(=O)[C@H](CCCCN)NC(=O)[C@H](CC(C)C)NC(=O)[C@H](CC(C)C)NC(=O)[C@H](CCCCN)NC(=O)[C@H](CC(C)C)NC(=O)[C@H](CC(C)C)NC(=O)[C@H](CCCCN)NC(=O)[C@H](CC(C)C)NC(=O)[C@H](CC(C)C)NC(=O)[C@H](CCCCN)NC(=O)[C@H](CC(C)C)NC(=O)[C@H](CC(C)C)NC(=O)[C@@H](N)CCCCN)C(=O)N[C@@H](Cc1c[nH]c2ccccc12)C(=O)N[C@@H](CCCCN)C(=O)O [KLLKLLKLLKLLKLWK],MIC,[19],0.78 µM
same,MIC,Spiroplasma citri R8A2,6.25 µM
same,MIC,[20],6.25 µM
same,MIC,[21],12.5 µM
same,MIC,[22],6.25 µM
CC(C)C[C@H](NC(=O)CN)C(=O)N[C@@H](Cc1ccccc1)C(=O)N[C@@H](CC(=O)O)C(=O)N[C@H](C(=O)N[C@H](C(=O)N[C@@H](CCCCN)C(=O)NCC(=O)N[C@H](C(=O)N[C@@H](CC(C)C)C(=O)N[C@@H](CCCCN)C(=O)NCC(=O)N[C@H](C(=O)NCC(=O)N[C@@H](CCCCN)C(=O)N[C@@H](CC(N)=O)C(=O)N[C@H](C(=O)N[C@@H](C)C(=O)NCC(=O)N[C@@H](CO)C(=O)N[C@@H](CC(C)C)C(=O)N[C@@H](CC(C)C)C(=O)N[C@@H](CCC(=O)O)C(=O)N[C@@H](CCC(N)=O)C(=O)N[C@@H](CC(C)C)C(=O)N[C@@H](CCCCN)C(=O)N[C@H]1CSSC[C@@H](C(=O)O)NC(=O)CNC(=O)CNC(=O)[C@H](CO)NC(=O)[C@H](CC(C)C)NC(=O)[C@H](CCCCN)NC1=O)C(C)C)C(C)C)C(C)C)C(C)C)C(C)C [GLFDVVKGVLKGVGKNVAGSLLEQLKCKLSGGC],MIC,[23],4.52 µM
same,MIC,[24],18.1 µM
same,MIC,Candida albicans,50 µM
same,MIC,[25],9.04 µM
same,MIC,Escherichia coli AS1.349,≥ 100 µM
same,MIC,[26],4.52 µM
same,MIC,[27],15.1 µM
same,MIC,Lactococcus lactis,≥ 37.5 µM
same,MIC,[28],≥ 37.5 µM
same,MIC,[29],18.1 µM
same,MIC,[30],30.1 µM
same,MIC,[31],30.1 µM
same,MIC,[32],> 30.1 µM
same,MIC,Pseudomonas aeruginosa,> 100 µM
same,MIC,Bacillus cereus,≥ 37.5 µM
same,MIC,[33],1.88 µM
